# Calls of active or inactive are those of the source. The calls are words filed in the database; no cut-off is given here.
# How the values were obtained:
# Trypanosoma cruzi [1] = test: Antitrypanosomal activity against bloodstream trypomastigote form of Trypanosoma cruzi NINOA isolated from infected mouse at the peak of parasitemia assessed as reduction in number of live parasites at 18 to 36 uM after 24 hrs; format: functional, organism-based
# Trypanosoma cruzi [2] = test: Antitrypanosomal activity against bloodstream trypomastigote form of Trypanosoma cruzi NINOA isolated from infected mouse at the peak of parasitemia assessed as reduction in number of live parasites at 178 uM after 24 hrs; format: functional, organism-based
# Trypanosoma cruzi [3] = test: Antitrypanosomal activity against bloodstream trypomastigote form of Trypanosoma cruzi NINOA isolated from infected mouse at the peak of parasitemia assessed as reduction in number of live parasites at 5 to 50 ug/ml after 24 hrs
# Trypanosoma cruzi [4] = test: Antitrypanosomal activity against bloodstream trypomastigote form of Trypanosoma cruzi NINOA isolated from infected mouse at the peak of parasitemia assessed as reduction in number of live parasites at 5 to 50 ug/ml after 24 hrs; format: functional, organism-based
# Trypanosoma cruzi [5] = test: Antitrypanosomal activity against bloodstream trypomastigote form of Trypanosoma cruzi NINOA isolated from infected mouse at the peak of parasitemia assessed as reduction in number of live parasites at 161 uM after 24 hrs; format: functional; parameters: scale not given: the % may be the effect or the level left
compound,measurement,setting,value
Nc1cccc(C(=O)c2[nH]c(=O)c3ccccc3c2O)c1,Activity,Trypanosoma cruzi [1],Active
same,Activity,Trypanosoma cruzi [2],inactive
same,Activity,Trypanosoma cruzi [3],Active
O=C(Cn1ccnc1[N+](=O)[O-])NCc1ccccc1,Activity,Trypanosoma cruzi [3],Active
O=C(c1ccccc1)c1[nH]c(=O)c2ccccc2c1O,Activity,Trypanosoma cruzi [4],inactive
O=C(c1cccc([N+](=O)[O-])c1)c1[nH]c(=O)c2ccccc2c1O,Activity,Trypanosoma cruzi [5],47%
